Experimental data: PubChem BioAssay AID2060895 (Molecular Pharmacology Branch, DTP, NCI, 2025)

Test system: PDC 899932-113-R3-J6 complex spheroid viability
Assay: Anticancer human tumor 899932-113-R3-J6-PDC patient-derived melanoma cell line growth inhibition [RAS]
Details: for IC50: curve of first compound; for viability, T/C: stronger effect = lower value
Summary of the method: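 Agents were tested in combination matrices in half-log decrements from a top concentration at or near clinical Cmax (10 microM if undetermined). Targets were multi-cell spheroids of tumour lines plus HUVEC and MSC stromal cells.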

[1] = second compound 0.000949 µM, first compound 0.0316 µM
[2] = second compound 0.000949 µM, first compound 0.1 µM
[3] = second compound 0.000949 µM, first compound 0.316 µM
[4] = second compound 0.000949 µM, first compound 1 µM
[5] = second compound 0.000949 µM, first compound 3.16 µM
[6] = second compound 0.000949 µM, first compound 10 µM
[7] = second compound 0.003 µM, first compound 0.0316 µM
[8] = second compound 0.003 µM, first compound 0.1 µM
[9] = second compound 0.003 µM, first compound 0.316 µM
[10] = second compound 0.003 µM, first compound 1 µM
[11] = second compound 0.003 µM, first compound 3.16 µM
[12] = second compound 0.003 µM, first compound 10 µM
[13] = second compound 0.00949 µM, first compound 0.0316 µM
[14] = second compound 0.00949 µM, first compound 0.1 µM
[15] = second compound 0.00949 µM, first compound 0.316 µM
[16] = second compound 0.00949 µM, first compound 1 µM
[17] = second compound 0.00949 µM, first compound 3.16 µM
[18] = second compound 0.00949 µM, first compound 10 µM
[19] = second compound 0.03 µM, first compound 0.0316 µM
[20] = second compound 0.03 µM, first compound 0.1 µM
[21] = second compound 0.03 µM, first compound 0.316 µM
[22] = second compound 0.03 µM, first compound 1 µM
[23] = second compound 0.03 µM, first compound 3.16 µM
[24] = second compound 0.03 µM, first compound 10 µM
[25] = second compound 0.0949 µM, first compound 0.0316 µM
[26] = second compound 0.0949 µM, first compound 0.1 µM
[27] = second compound 0.0949 µM, first compound 0.316 µM
[28] = second compound 0.0949 µM, first compound 1 µM
[29] = second compound 0.0949 µM, first compound 3.16 µM
[30] = second compound 0.0949 µM, first compound 10 µM
[31] = second compound 0.3 µM, first compound 0.0316 µM
[32] = second compound 0.3 µM, first compound 0.1 µM
[33] = second compound 0.3 µM, first compound 0.316 µM
[34] = second compound 0.3 µM, first compound 1 µM
[35] = second compound 0.3 µM, first compound 3.16 µM
[36] = second compound 0.3 µM, first compound 10 µM
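Throughout, for viability, T/C: spheroids exposed to agents for seven days before readout; 100% = DMSO vehicle control wells.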

Compound: Cc1nc(N2CCC3(CC2)COC(C)C3N)c(CO)nc1Sc1ccnc(N)c1Cl (stereo unspecified) + CCn1c(-c2cc(N3CCN(C)CC3)cnc2C(C)OC)c2c3cc(ccc31)-c1csc(n1)CC(NC(=O)C1CC1C)C(=O)N1CCCC(N1)C(=O)OCC(C)(C)C2
- IC50 (second compound 0.000949 µM): > 10000 nM
- IC50 (second compound 0.003 µM): < 31.6 nM
- IC50 (second compound 0.00949 µM): < 31.6 nM
- IC50 (second compound 0.03 µM): < 31.6 nM
- IC50 (second compound 0.0949 µM): < 31.6 nM
- IC50 (second compound 0.3 µM): < 31.6 nM
- viability, T/C [1]: 70.1%
- viability, T/C [2]: 71.2%
- viability, T/C [3]: 76.8%
- viability, T/C [4]: 78.6%
- viability, T/C [5]: 80%
- viability, T/C [6]: 83%
- viability, T/C [7]: 29.8%
- viability, T/C [8]: 29.9%
- viability, T/C [9]: 30.1%
- viability, T/C [10]: 31.8%
- viability, T/C [11]: 38.8%
- viability, T/C [12]: 35.3%
- viability, T/C [13]: 3.52%
- viability, T/C [14]: 3.03%
- viability, T/C [15]: 2.45%
- viability, T/C [16]: 2.29%
- viability, T/C [17]: 2.72%
- viability, T/C [18]: 2.76%
- viability, T/C [19]: 2.9%
- viability, T/C [20]: 2.41%
- viability, T/C [21]: 2.2%
- viability, T/C [22]: 2.42%
- viability, T/C [23]: 1.4%
- viability, T/C [24]: 1.8%
- viability, T/C [25]: 2.84%
- viability, T/C [26]: 2.97%
- viability, T/C [27]: 1.92%
- viability, T/C [28]: 2.03%
- viability, T/C [29]: 1.67%
- viability, T/C [30]: 0.79%
- viability, T/C [31]: 2.22%
- viability, T/C [32]: 2.77%
- viability, T/C [33]: 1.95%
- viability, T/C [34]: 2.27%
- viability, T/C [35]: 1.64%
- viability, T/C [36]: 1.71%

Compound: NC1c2ccccc2OC12CCN(c1cnc3c(N4CCCc5ncccc54)n[nH]c3n1)CC2 (stereo unspecified) + CCn1c(-c2cc(N3CCN(C)CC3)cnc2C(C)OC)c2c3cc(ccc31)-c1csc(n1)CC(NC(=O)C1CC1C)C(=O)N1CCCC(N1)C(=O)OCC(C)(C)C2
- IC50 (second compound 0.000949 µM): > 10000 nM
- IC50 (second compound 0.003 µM): < 31.6 nM
- IC50 (second compound 0.00949 µM): < 31.6 nM
- IC50 (second compound 0.03 µM): < 31.6 nM
- IC50 (second compound 0.0949 µM): < 31.6 nM
- IC50 (second compound 0.3 µM): < 31.6 nM
- viability, T/C [1]: 72.7%
- viability, T/C [2]: 64.5%
- viability, T/C [3]: 79.9%
- viability, T/C [4]: 73.4%
- viability, T/C [5]: 81%
- viability, T/C [6]: 70.2%
- viability, T/C [7]: 31.8%
- viability, T/C [8]: 27.1%
- viability, T/C [9]: 34.3%
- viability, T/C [10]: 38%
- viability, T/C [11]: 38.2%
- viability, T/C [12]: 12.4%
- viability, T/C [13]: 2.82%
- viability, T/C [14]: 2.7%
- viability, T/C [15]: 2%
- viability, T/C [16]: 2.89%
- viability, T/C [17]: 3.55%
- viability, T/C [18]: 4.09%
- viability, T/C [19]: 2.17%
- viability, T/C [20]: 1.67%
- viability, T/C [21]: 1.01%
- viability, T/C [22]: 0.93%
- viability, T/C [23]: 0.99%
- viability, T/C [24]: 2.33%
- viability, T/C [25]: 1.84%
- viability, T/C [26]: 1.61%
- viability, T/C [27]: 0.9%
- viability, T/C [28]: 0.51%
- viability, T/C [29]: 0.3%
- viability, T/C [30]: 1.08%
- viability, T/C [31]: 1.87%
- viability, T/C [32]: 2.01%
- viability, T/C [33]: 1.11%
- viability, T/C [34]: 0.31%
- viability, T/C [35]: 0.4%
- viability, T/C [36]: 0.35%

Compound: Nc1ccn(C2OC(CO)C(O)C2(F)F)c(=O)n1 (stereo unspecified) + CCn1c(-c2cc(N3CCN(C)CC3)cnc2C(C)OC)c2c3cc(ccc31)-c1csc(n1)CC(NC(=O)C1CC1C)C(=O)N1CCCC(N1)C(=O)OCC(C)(C)C2
- IC50 (second compound 0.000949 µM): 5.85 nM
- IC50 (second compound 0.003 µM): < 3.16 nM
- IC50 (second compound 0.00949 µM): < 3.16 nM
- IC50 (second compound 0.03 µM): < 3.16 nM
- IC50 (second compound 0.0949 µM): < 3.16 nM
- IC50 (second compound 0.3 µM): < 3.16 nM
- viability, T/C (second compound 0.000949 µM, first compound 0.00316 µM): 62.9%
- viability, T/C (second compound 0.000949 µM, first compound 0.01 µM): 38.6%
- viability, T/C [1]: 19.2%
- viability, T/C [2]: 10.9%
- viability, T/C [3]: 10.9%
- viability, T/C [4]: 12.7%
- viability, T/C (second compound 0.003 µM, first compound 0.00316 µM): 34.1%
- viability, T/C (second compound 0.003 µM, first compound 0.01 µM): 22.6%
- viability, T/C [7]: 9.17%
- viability, T/C [8]: 6.99%
- viability, T/C [9]: 7.8%
- viability, T/C [10]: 7.27%
- viability, T/C (second compound 0.00949 µM, first compound 0.00316 µM): 3.07%
- viability, T/C (second compound 0.00949 µM, first compound 0.01 µM): 3.15%
- viability, T/C [13]: 3.74%
- viability, T/C [14]: 3.5%
- viability, T/C [15]: 3.59%
- viability, T/C [16]: 3.95%
- viability, T/C (second compound 0.03 µM, first compound 0.00316 µM): 2.89%
- viability, T/C (second compound 0.03 µM, first compound 0.01 µM): 2.31%
- viability, T/C [19]: 3.09%
- viability, T/C [20]: 3.08%
- viability, T/C [21]: 2.1%
- viability, T/C [22]: 2.81%
- viability, T/C (second compound 0.0949 µM, first compound 0.00316 µM): 2.38%
- viability, T/C (second compound 0.0949 µM, first compound 0.01 µM): 1.69%
- viability, T/C [25]: 2.42%
- viability, T/C [26]: 2.17%
- viability, T/C [27]: 1.85%
- viability, T/C [28]: 2.61%
- viability, T/C (second compound 0.3 µM, first compound 0.00316 µM): 1.86%
- viability, T/C (second compound 0.3 µM, first compound 0.01 µM): 2%
- viability, T/C [31]: 2.22%
- viability, T/C [32]: 2.4%
- viability, T/C [33]: 2.26%
- viability, T/C [34]: 1.79%
